Experimental data published in patent US20240159706A1, “MALDI-MS METHOD, PHOTO-SENSITIVE MALDI MATRIX COMPOSITE AND PHOTO-CAGED MALDI MATRIX COMPOUND FOR USE IN SAID METHOD AND RESPECTIVE USES” (SIRIUS FINE CHEMICALS SICHEM GMBH, priority 2021, published 2024).
Like-named read-outs stand apart in the source and are kept apart here.

How the values were obtained:
[1] = Solubility tests with Photo-caged MALDI Matrix Compounds in solvents/solvent systems; format: physicochemical; settings: for solubility: thermodynamic from solid, read-out: solubility (completely dissolved at 2.5 mg/mL); for solubility in the solvents or solvent systems under review: overall rating from Table 2, Solvents 1-10
Method: Photo-caged MALDI Matrix Compounds according to the invention were prepared as described in Example 1 above and tested for solubility in different solvents (including solvent systems). The solvents (including solvent systems) used in this Example 2 are listed here below in Table 1:
Around 1 mg of each Photo-caged MALDI Matrix Compound was weighed into an Eppendorf tube using an analytical balance. The calculated amount of selected solvent was added into the tube to generate a solution at a maximal concentration of 2.5 mg/mL. An ultrasonic bath was used for max. 3 min. to accelerate the dissolving process.
The numbers of the compounds used in this Example 2 refer to the example numbers of Example 1 above. In Table 2 below, the mark “X” in a cell means, that the respective compound was completely dissolved in the respective solvent or solvent system in a concentration of 2.5 mg/mL.

[2] = Dissolution of matrix compounds when preparing test solutions (Example 4a); format: physicochemical
Method: Conventional MALDI matrix compounds 2,5-dihydroxybenzoic acid (2,5-DHB); 1,5-diaminonaphthalene (1,5-DAN); 3-hydroxycoumarin (3-HC); […] (2,5-DHAP); 2-mercaptobenzothiazole (2-MBT) and dithranol, respectively, were dissolved in acetonitrile/water (1:1 v/v) at a concentration of 5 mg/mL. […] 1 μL of each resulting solution was pipetted onto an ITO glass slide. After droplets had dried in the air, a first optical image (Aperio CS2 Scanner, Leica Biosystems, Wetzlar, Germany) of the whole ITO slides at 0 min. was recorded. The slides were then incubated at about 35° C. and a vacuum between about 3.5×10^−6 mbar (t=0 min.) and about 1.4×10^−7 mbar (t=892 min.) in an ultrafleXtreme™ MALDI TOF mass spectrometer (Bruker Daltonics) equipped with a Smartbeam-II Nd:YAG laser (355 nm) for time periods of 18 min., 80 min. and 892 min., respectively. After each time interval, additional optical images were taken of the slides. For 2,5-dihydroxyacetophenone (2,5-DHAP) a similar test was performed with a diluted solution (2.5 mg/mL). […]

[3] = Additional vacuum stability test, compounds sprayed on ITO slides with porcine brain tissue sections (Example 4a); format: physicochemical; settings: 21 hrs, about 35° C., vacuum up to about 1.4×10^−7 mbar
Method: In a separate experiment, frozen porcine brain tissue was sectioned into 10 μm slices using a Leica CM1950 clinical cryostate (Leica Biosystems, Germany) at a chamber temperature of −15° C. and a head temperature of −10° C. The tissue sections were thaw-mounted onto ITO glass slides and dried for 20 min under vacuum. The ITO glass object slides with tissue sections were then sealed and stored at −80° C. until analysis. Shortly before usage, the slides were taken out from the freezer and thawed at room temperature for 20 min. under vacuum.
Photo-caged MALDI Matrix Compounds of Examples Ex. 1.1 (DMNB-2,5-DHAP), 1.7 (CNB-2,5-DHAP), 1.8 (PMNB-2,5-DHAP) and 1.9 (DMNBC-2,5 DHAP) were dissolved (Ex. 1.1: 2.5 mg/mL in standard solvent according to table 2 above; Ex.: 1.7 and 1.8:2.5 mg/mL in acetonitrile/water 7:3 (v/v)+0.1% trifluoroacetic acid; Ex. 1.9: saturated solution <2.5 mg/mL in acetonitrile/water 8:2 (v/v)+0.1% trifluoroacetic acid) and sprayed onto the ITO slides as prepared above, including to the porcine brain tissue sections thereof (see above) with a HTX M5 sprayer (HTX Technologies, USA), spray parameters: temperature of spray nozzle/tray: 50° C./25° C., Spray nozzle velocity 1000 mm/min; nozzle height: 40 mm. Twenty passes with a flow rate of 60 μL/min and a pressure of 10 psi were sprayed. Optical images of the sprayed slides were then recorded before incubation and after incubation in an ultrafleXtreme™ MALDI TOF mass spectrometer (see above) for 21 hrs at about 35° C. and a vacuum of up to about 1.4×10^−7 mbar.

[4] = stated as known; cited from earlier work
[5] = Crystallisation test by spray method; format: physicochemical; settings: on ITO object slide, by scanning electron microscopy
Method: The Photo-caged MALDI Matrix Compound of Ex. 1.1 according to the invention was prepared as described in Example 1 above and spray-tested for its crystallization properties in a spraying method on (i) an indium tin-oxide (ITO) object slide and (ii) on a sliced sample of porcine brain.
In each case, a solution of the Photo-caged MALDI Matrix Compound of Ex. 1.1 (concentration 2.5 mg/mL in acetonitrile/water v/v 4/1) was sprayed onto the surfaces of (i) an ITO object slide and (ii) on a sliced sample of porcine brain with a MALDI HTX M5 Sprayer™ (by HTX Technologies, LLC, USA).
The operating parameters applied were as follows: Temperature of spraying nozzle: 50° C./flow rate: 0.06 mL/min/speed of spraying nozzle: 1000 mm/min/spraying distance: 40 mm.
The resulting crystals on (i) an ITO object slide and (FIG. 1 to 3) (ii) on a sliced sample of porcine brain (FIG. 4 to 5) where then analyzed by optical scanning (in 20-fold magnification) and by scanning electron microscopy (in 5000-fold and 10000-fold magnification), as shown in FIG. 1 to 5.

[6] = Solvent 5: Methanol/water (v/v 90/10)
[7] = Solvent 6: Methanol/water (v/v 90/10) + 0.1% trifluoroacetic acid
[8] = Solvent 7: Methanol/water (v/v 90/10) + 50 mM (final conc.) NH4HCO3
[9] = Solvent 8: Methanol/water (v/v 85/15)
[10] = Solvent 9: Methanol/water (v/v 85/15) + 0.1% trifluoroacetic acid
[11] = Solvent 10: Methanol/water (v/v 85/15) + 50 mM (final conc.) NH4HCO3
[12] = organic solvent or mixture, Solvent 1: Acetonitrile
[13] = organic solvent or mixture, Solvent 2: Acetonitrile/water (v/v 90/10)
[14] = organic solvent or mixture, Solvent 3: Acetonitrile/water (v/v 90/10) + 0.1% trifluoroacetic acid
[15] = organic solvent or mixture, Solvent 4: Acetonitrile/water (v/v 85/15) + 0.1% trifluoroacetic acid
[16] = Solvent 2: Acetonitrile/water (v/v 90/10)
[17] = Solvent 3: Acetonitrile/water (v/v 90/10) + 0.1% trifluoroacetic acid
[18] = Solvent 4: Acetonitrile/water (v/v 85/15) + 0.1% trifluoroacetic acid
[19] = organic solvent or mixture, Solvent 5: Methanol/water (v/v 90/10)
[20] = organic solvent or mixture, Solvent 6: Methanol/water (v/v 90/10) + 0.1% trifluoroacetic acid

| solubility (completely dissolved at 2.5 mg/mL) [1, 6] | solubility (completely dissolved at 2.5 mg/mL) [1, 7] | solubility (completely dissolved at 2.5 mg/mL) [1, 8] | solubility (completely dissolved at 2.5 mg/mL) [1, 9] | solubility (completely dissolved at 2.5 mg/mL) [1, 10] | solubility (completely dissolved at 2.5 mg/mL) [1, 11] | solubility [1, 12] [µg/mL] | solubility [1, 13] [µg/mL] | solubility [1, 14] [µg/mL] | solubility [1, 15] [µg/mL] | solubility in the solvents or solvent systems under review [1] | presence on ITO slides / porcine brain tissue sections after incubation under vacuum [3] | SMILES | further results |
| --- | --- | --- | --- | --- | --- | --- | --- | --- | --- | --- | --- | --- | --- |
| ◯ | ◯ | ◯ | ◯ | ◯ | ◯ | > 2500 | > 2500 | > 2500 | > 2500 | very good solubility | – | COc1cc(COc2cccc(O)c2C(C)=O)c([N+](=O)[O-])cc1OC [Ex. 1.4, 1-(2-((4,5-Dimethoxy-2-nitrobenzyl)oxy)-6-hydroxyphenyl)ethan-1-one] | – |
| – | – | – | – | – | – | – | – | – | – | – | best results | COc1cc(COC(=O)Oc2ccc(O)c(C(C)=O)c2)c([N+](=O)[O-])cc1OC [Ex. 1.9, 3-Acetyl-4-hydroxyphenyl (4,5-dimethoxy-2-nitrobenzyl) carbonate] | concentration of saturated solution ([2]; acetonitrile/water 8:2 (v/v)+0.1% trifluoroacetic acid): < 2500 µg/mL |
| ◯ | ◯ | ◯ | ◯ | ◯ | ◯ | – | – | – | – | – | – | COc1cc(COc2cccc3c2C(=O)c2c(O)cccc2C3)c([N+](=O)[O-])cc1OC [Ex. 1.6, 1-((4,5-Dimethoxy-2-nitrobenzyl)oxy)-8-hydroxyanthracen-9(10H)-one] | solubility (completely dissolved at 2.5 mg/mL) ([1]; Solvent 1: Acetonitrile): ◯; solubility (completely dissolved at 2.5 mg/mL) [1, 16]: ◯; solubility (completely dissolved at 2.5 mg/mL) [1, 17]: ◯; solubility (completely dissolved at 2.5 mg/mL) [1, 18]: ◯ |
| – | – | – | – | – | – | > 2500 | > 2500 | > 2500 | > 2500 | excellent solubility | – | COc1cc(CNc2cccc3c(N)cccc23)c([N+](=O)[O-])cc1OC [Ex. 1.2, N^1-(4,5-dimethoxy-2-nitrobenzyl)naphthalene-1,5-diamine] | solubility ([1]; methanol/water (v/v 85/15) + 50 mM NH4HCO3, organic solvent or mixture, Solvent 10: Methanol/water (v/v 85/15) + 50 mM (final conc.) NH4HCO3): > 2500 µg/mL; solubility ([1]; methanol/water (v/v 90/10) + 50 mM NH4HCO3, organic solvent or mixture, Solvent 7: Methanol/water (v/v 90/10) + 50 mM (final conc.) NH4HCO3): > 2500 µg/mL; solubility [1, 19]: > 2500 µg/mL; solubility [1, 20]: > 2500 µg/mL; solubility ([1]; organic solvent or mixture, Solvent 8: Methanol/water (v/v 85/15)): > 2500 µg/mL; solubility ([1]; organic solvent or mixture, Solvent 9: Methanol/water (v/v 85/15) + 0.1% trifluoroacetic acid): > 2500 µg/mL |
| ◯ | – | ◯ | ◯ | ◯ | ◯ | > 2500 | > 2500 | > 2500 | > 2500 | very good solubility | best results | COc1cc(COc2ccc(O)c(C(C)=O)c2)c([N+](=O)[O-])cc1OC [Ex. 1.1, 1-(5-((4,5-Dimethoxy-2-nitrobenzyl)oxy)-2-hydroxyphenyl)ethan-1-one] | average size of the resulting crystals [5]: about 1 μm; solubility [1, 20]: > 2500 µg/mL |
| ◯ | ◯ | ◯ | ◯ | ◯ | ◯ | > 2500 | – | – | – | – | – | COc1cc(COc2cc3ccccc3oc2=O)c([N+](=O)[O-])cc1OC [Ex. 1.3, 3-((4,5-Dimethoxy-2-nitrobenzyl)oxy)-2H-chromen-2-one] | solubility (completely dissolved at 2.5 mg/mL) [1, 16]: ◯; solubility (completely dissolved at 2.5 mg/mL) [1, 17]: ◯; solubility (completely dissolved at 2.5 mg/mL) [1, 18]: ◯ |
| – | ◯ | ◯ | ◯ | ◯ | ◯ | > 2500 | > 2500 | > 2500 | > 2500 | very good solubility | – | COc1cc(CSc2nc3ccccc3s2)c([N+](=O)[O-])cc1OC [Ex. 1.5, 2-((4,5-Dimethoxy-2-nitrobenzyl)thio)benzo[d]thiazole] | solubility [1, 19]: > 2500 µg/mL |

Further lines, the molecule ahead of its results:

| SMILES | solubility (completely dissolved at 2.5 mg/mL) [1, 6] | solubility (completely dissolved at 2.5 mg/mL) [1, 7] | solubility (completely dissolved at 2.5 mg/mL) [1, 8] | solubility (completely dissolved at 2.5 mg/mL) [1, 9] | solubility (completely dissolved at 2.5 mg/mL) [1, 10] | solubility (completely dissolved at 2.5 mg/mL) [1, 11] | solubility [1, 12] [µg/mL] | solubility [1, 13] [µg/mL] | solubility [1, 14] [µg/mL] | solubility [1, 15] [µg/mL] | solubility in the solvents or solvent systems under review [1] | presence on ITO slides / porcine brain tissue sections after incubation under vacuum [3] | further results |
| --- | --- | --- | --- | --- | --- | --- | --- | --- | --- | --- | --- | --- | --- |
| CC(=O)c1c(O)cccc1O [2,6-DHAP, 2,6-dihydroxyacetophenone] | – | – | – | – | – | – | – | – | – | – | – | – | sensitivity to vacuum conditions [4]: extremely sensitive to vacuum conditions and volatile |
| Sc1nc2ccccc2s1 [2-MBT, 2-mercaptobenzothiazole, reference compound] | – | – | – | – | – | – | – | – | – | – | – | – | dissolution at a concentration of 5 mg/mL ([2]; acetonitrile/water (1:1 v/v), 5 mg/mL): not completely dissolved |
| CC(=O)c1cc(O)ccc1O [2,5-DHAP, 2,5-dihydroxyacetophenone, reference compound] | – | – | – | – | – | – | – | – | – | – | – | completely evaporated | – |
